From ChEMBL document CHEMBL1201862, “PubChem BioAssay data set” (2004)
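How tested: cells in 96-well plates exposed to compound for 48 hours at five concentrations. At the GI50, growth is halved.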 Calls of active or inactive are those of the source. Rule as the data show it: active = GI50 up to about 1.1 µM and inactive = higher.

Legend:
Test in all cases: inhibition of tumour cell growth, NCI panel, 48 h
Malme-3M = system: Malme-3M
NCI-H226 = system: NCI-H226
SK-MEL-5 = system: SK-MEL-5
TK-10 = system: TK-10
T47D = system: T47D
HCC 2998 = system: HCC 2998
NCI/ADR-RES = system: NCI/ADR-RES
DU-145 = system: DU-145
NCI-H460 = system: NCI-H460
SW-620 = system: SW-620
MCF7 = system: MCF7
MDA-MB-231 = system: MDA-MB-231
HT-29 = system: HT-29
HL-60 = system: HL-60
MOLT-4 = system: MOLT-4
SK-MEL-28 = system: SK-MEL-28
MDA-N = system: MDA-N
ACHN = system: ACHN
IGROV-1 = system: IGROV-1

SMILES | GI50 (Malme-3M) | GI50 (NCI-H226) | GI50 (SK-MEL-5) | GI50 (TK-10) | GI50 (T47D) | GI50 (HCC 2998) | GI50 (NCI/ADR-RES) | GI50 (DU-145) | GI50 (NCI-H460) | GI50 (SW-620) | GI50 (MCF7) | GI50 (MDA-MB-231) | GI50 (HT-29) | GI50 (HL-60) | GI50 (MOLT-4) | GI50 (SK-MEL-28) | GI50 (MDA-N) | GI50 (ACHN) | GI50 (IGROV-1)
COc1cc(/C=C2\C(=O)N(c3ccc(Cl)cc3)C(c3ccccc3)S2(=O)=O)cc(OC)c1OC (stereo unspecified) | 42.3 µM (inactive) | > 84.1 µM (inactive) | 1.05 µM (active) | > 63 µM (inactive) | 2.77 µM (inactive) | 41.4 µM (inactive) | 12.4 µM (inactive) | > 100 µM (inactive) | 3.95 µM (inactive) | 32.2 µM (inactive) | 4.61 µM (inactive) | > 69.3 µM (inactive) | 42.5 µM (inactive) | 5.04 µM (inactive) | 26.9 µM (inactive) | > 54.3 µM (inactive) | 2.04 µM (inactive) |  | 
[O-][S+](CCCl)c1c2ccccc2nc2ccccc12 (stereo unspecified) | > 100 µM (inactive) | > 100 µM (inactive) |  | > 100 µM (inactive) | > 100 µM (inactive) | > 100 µM (inactive) | > 100 µM (inactive) | 22.9 µM (inactive) | > 100 µM (inactive) | 11.3 µM (inactive) | 28.2 µM (inactive) | 70.6 µM (inactive) | 53.6 µM (inactive) | 29.4 µM (inactive) | 37.2 µM (inactive) | > 100 µM (inactive) | 34.5 µM (inactive) | > 100 µM (inactive) | 38.6 µM (inactive)
Oc1c(C2=NNC(c3ccc(Cl)cc3Cl)C2)ccc2ccccc12 (stereo unspecified) | 17.9 µM (inactive) | 50.4 µM (inactive) | 52 µM (inactive) | 66.2 µM (inactive) | 62.2 µM (inactive) | 34.5 µM (inactive) | 22 µM (inactive) | 64.9 µM (inactive) | 30.1 µM (inactive) | 35.9 µM (inactive) | 30.2 µM (inactive) | 46.5 µM (inactive) | 31.4 µM (inactive) |  | 5.7 µM (inactive) | 45.7 µM (inactive) | 19.5 µM (inactive) | 38.5 µM (inactive) | 14.4 µM (inactive)
COc1ccc2c(c1)C(N)=C(c1ccccc1OC)C2=O | > 100 µM (inactive) | > 100 µM (inactive) |  | > 100 µM (inactive) | > 100 µM (inactive) | > 100 µM (inactive) | > 100 µM (inactive) | > 100 µM (inactive) | > 100 µM (inactive) | > 100 µM (inactive) | > 100 µM (inactive) | > 100 µM (inactive) | > 100 µM (inactive) | 23.5 µM (inactive) | 75.7 µM (inactive) | > 100 µM (inactive) | > 100 µM (inactive) | > 100 µM (inactive) | > 100 µM (inactive)
O=c1[nH]nc(Cc2ccc(Cl)cc2)n1/N=C/c1cccs1 | > 100 µM (inactive) | 43.5 µM (inactive) |  |  | > 100 µM (inactive) | > 100 µM (inactive) | 50.5 µM (inactive) | 99.8 µM (inactive) | > 100 µM (inactive) | > 100 µM (inactive) | 44.3 µM (inactive) | 21.3 µM (inactive) | 14 µM (inactive) | > 100 µM (inactive) | > 100 µM (inactive) | > 100 µM (inactive) | > 100 µM (inactive) | 75.7 µM (inactive) | 23.1 µM (inactive)
O=[N+]([O-])c1cccc(/N=N/c2c(O)c(S(=O)(=O)O)cc3cc(S(=O)(=O)O)ccc23)c1 | > 100 µM (inactive) | > 100 µM (inactive) | > 100 µM (inactive) | > 100 µM (inactive) | > 100 µM (inactive) | > 100 µM (inactive) | > 100 µM (inactive) | > 100 µM (inactive) | > 100 µM (inactive) | > 100 µM (inactive) | 67.8 µM (inactive) | > 100 µM (inactive) |  | > 100 µM (inactive) | > 100 µM (inactive) | > 100 µM (inactive) | > 100 µM (inactive) | > 100 µM (inactive) | > 100 µM (inactive)
